The values that follow come from publication PMC6934184, “Selective DNA-PKcs inhibition extends the therapeutic index of localized radiotherapy and chemotherapy” (The Journal of Clinical Investigation, 2019).

In this experiment the target is T1, FGR (Homo sapiens, UniProt P09769).
T1 construct: purchased Thermo Fisher Scientific (Life Technologies) SelectScreen
Nature of the experiment: SelectScreen Z'LYTE. The format is biochemical. The method in brief: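 Percent values come from Thermo SelectScreen profiling of NU5455, combining activity and binding assays. CSF1R was run in Z'LYTE format at Km app ATP, and CAMK1 in Adapta format with ATP listed at 10.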

T1 sequence (P09769 whole entry): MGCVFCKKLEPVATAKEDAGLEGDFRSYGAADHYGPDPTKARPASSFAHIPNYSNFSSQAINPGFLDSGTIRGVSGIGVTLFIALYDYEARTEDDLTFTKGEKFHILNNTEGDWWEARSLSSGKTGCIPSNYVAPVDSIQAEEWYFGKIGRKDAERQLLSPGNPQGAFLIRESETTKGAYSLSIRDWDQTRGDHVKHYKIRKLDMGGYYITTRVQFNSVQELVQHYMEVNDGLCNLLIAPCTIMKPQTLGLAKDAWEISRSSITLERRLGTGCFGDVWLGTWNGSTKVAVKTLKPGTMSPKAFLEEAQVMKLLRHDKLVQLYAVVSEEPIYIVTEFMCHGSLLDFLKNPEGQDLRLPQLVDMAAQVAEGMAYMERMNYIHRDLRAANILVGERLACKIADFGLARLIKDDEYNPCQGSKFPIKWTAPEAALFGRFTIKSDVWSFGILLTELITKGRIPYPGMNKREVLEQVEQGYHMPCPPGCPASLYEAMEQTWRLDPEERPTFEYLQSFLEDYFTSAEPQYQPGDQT

`CN(C(=O)CN1CCOCC1)c1ccc2sc3c(-c4cccc5c(=O)cc(N6CC7CCC(C6)O7)oc45)cccc3c2c1` [NU5455] registered an inhibition at 1 µM of 12.1%.

Usually inhibition stands for the share of the control response that was lost under treatment. High values mean strong suppression, low ones little suppression.
